Reference: ChEMBL document CHEMBL1140270, “Synthesis and biological evaluation of new biphalin analogues with non-hydrazine linkers” (Bioorg Med Chem Lett, 2005)

Experiments:
[1] = molecular target: Delta-type opioid receptor (Mus musculus, UniProt P32300); assay: In vitro agonist activity against Opioid receptor delta in mouse vas deferens; type: functional, tissue-based
Mu-type opioid receptor = Mu-type opioid receptor (Cavia porcellus, UniProt P97266); assay: In vitro agonist activity against Opioid receptor mu in guinea pig ileum/longitudinal muscle myenteric plexus; type: functional, tissue-based
Mu-type opioid receptor, sequence (P97266 whole entry): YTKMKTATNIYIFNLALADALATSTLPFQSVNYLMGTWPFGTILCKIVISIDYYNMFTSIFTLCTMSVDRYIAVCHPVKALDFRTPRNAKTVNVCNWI

[2] = In vitro inhibition of [3H]DAMGO binding to Opioid receptor mu
[3] = In vitro inhibition of [3H]DPDPE binding to Opioid receptor delta
[4] = molecular target: Delta-type opioid receptor (Mus musculus) (UniProt P32300); assay: Percent inhibition against Opioid receptor delta in mouse vas deferens; type: functional, tissue-based; settings: concentration not given here
Delta-type opioid receptor (Mus musculus), sequence (P32300 whole entry): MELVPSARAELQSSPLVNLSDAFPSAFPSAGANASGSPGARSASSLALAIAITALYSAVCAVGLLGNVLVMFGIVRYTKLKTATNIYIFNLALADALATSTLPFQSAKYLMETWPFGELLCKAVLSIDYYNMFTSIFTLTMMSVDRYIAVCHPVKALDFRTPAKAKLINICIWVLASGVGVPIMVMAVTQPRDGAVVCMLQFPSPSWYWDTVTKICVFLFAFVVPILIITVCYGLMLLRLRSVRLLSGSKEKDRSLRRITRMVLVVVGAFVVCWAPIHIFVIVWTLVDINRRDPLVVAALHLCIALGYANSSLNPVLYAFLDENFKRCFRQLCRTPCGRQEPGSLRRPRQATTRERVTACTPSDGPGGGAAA

[5] = molecular target: Mu-type opioid receptor (Cavia porcellus) (UniProt P97266); assay: Percent inhibition against Opioid receptor mu in guinea pig ileum/longitudinal muscle myenteric plexus; type: functional, tissue-based; settings: concentration not given here
Mu-type opioid receptor (Cavia porcellus), sequence (P97266 whole entry): as the sequence (P97266 whole entry) above

Delta-type opioid receptor, sequence (P32300 whole entry): as the sequence (P32300 whole entry) above

| inhibition [4] [%] | inhibition [5] [%] | Compound | IC50 [1] [nM] | IC50 (Mu-type opioid receptor) [nM] | IC50 [2] [nM] | IC50 [3] [nM] |
| --- | --- | --- | --- | --- | --- | --- |
|  |  | C[C@@H](NC(=O)[C@@H](N)Cc1ccc(O)cc1)C(=O)NCC(=O)N[C@@H](Cc1ccccc1)C(=O)Nc1ccccc1NC(=O)[C@H](Cc1ccccc1)NC(=O)CNC(=O)[C@@H](C)N[C@@H](N)Cc1ccc(O)cc1 | 0.72 | 40 | 1.93 | 0.19 |
|  |  | C[C@@H](NC(=O)[C@@H](N)Cc1ccc(O)cc1)C(=O)NCC(=O)N[C@@H](Cc1ccccc1)C(=O)Nc1ccc(NC(=O)[C@H](Cc2ccccc2)NC(=O)CNC(=O)[C@@H](C)N[C@@H](N)Cc2ccc(O)cc2)cc1 | 35.6 | 40 | 1.27 | 3.17 |
|  |  | C[C@@H](NC(=O)[C@@H](N)Cc1ccc(O)cc1)C(=O)NCC(=O)N[C@@H](Cc1ccccc1)C(=O)N1CCN(C(=O)[C@H](Cc2ccccc2)NC(=O)CNC(=O)[C@@H](C)N[C@@H](N)Cc2ccc(O)cc2)CC1 | 9.3 | 2.5 | 0.48 | 0.65 |
| 17 | 43 | N[C@H](Cc1ccc(O)cc1)C(=O)N[C@H](Cc1ccccc1)C(=O)Nc1ccc(NC(=O)[C@@H](Cc2ccccc2)NC(=O)[C@H](N)Cc2ccc(O)cc2)cc1 |  |  | 8200 | 2400 |
|  |  | C[C@@H](NC(=O)[C@@H](N)Cc1ccc(O)cc1)C(=O)NCC(=O)N[C@@H](Cc1ccccc1)C(=O)NNC(=O)[C@H](Cc1ccccc1)NC(=O)CNC(=O)[C@@H](C)NC(=O)[C@@H](N)Cc1ccc(O)cc1 [BIPHALIN] |  |  | 1.4 | 2.6 |
| 47 | 61 | N[C@H](Cc1ccc(O)cc1)C(=O)N[C@H](Cc1ccccc1)C(=O)Nc1ccccc1NC(=O)[C@@H](Cc1ccccc1)NC(=O)[C@H](N)Cc1ccc(O)cc1 |  |  | 3010 | 640 |

| Compound | inhibition [4] [%] | inhibition [5] [%] | IC50 [1] [nM] | IC50 (Mu-type opioid receptor) [nM] | IC50 [2] [nM] | IC50 [3] [nM] |
| --- | --- | --- | --- | --- | --- | --- |
| N[C@H](Cc1ccc(O)cc1)C(=O)N[C@H](Cc1ccccc1)C(=O)N1CCN(C(=O)[C@@H](Cc2ccccc2)NC(=O)[C@H](N)Cc2ccc(O)cc2)CC1 | 8.1 | 25.5 |  |  | 2700 | 400 |
